For data set [1], the system named is Mycobacterium tuberculosis. The data set can be described thus: microbe, parasite or virus in culture. The following applies: H37Rv ATCC 27294, 672 h.
Description: Antimycobacterial activity against Mycobacterium tuberculosis H37Rv ATCC 27294 after 28 days by agar dilution method
Data set [2] can be described thus: Lipophilicity, log P of the compound. The format is physicochemical. The following applies: octanol/water.
Data set [3] in a line: Cytotoxicity against HEK293T cells at 50 ug/ml after 72 hrs by MTT assay. The format is cell-based, HEK-293T. The conditions noted are these: human, read-out: INH.
The nature of data set [4]: Therapeutic index, ratio of inhibition of HEK293T cells to MIC for Mycobacterium tuberculosis H37Rv ATCC 27294. The following applies: human, read-out: TI. The data set is classed as cell-based, HEK-293T.

Values after ≈ are worked out from the molar mass of the structure shown.

By logP is commonly meant the decadic logarithm of the partition coefficient of the neutral form, usually between octanol and water. Low values mean lower lipophilicity, high ones higher lipophilicity. In data set [1], `c1ccc(-c2cc3c(ccc4oc5ccccc5c43)o2)cc1` registered an MIC of 6.25 µg/mL (≈ 22 µM). Further, the logP in data set [2] came to 4.04. Also, the cytotoxicity at 72 h, 50 ug/ml in data set [3] amounted to 32.1%.

Turning to `Cc1cccc(-c2cc3c(ccc4oc5ccccc5c43)o2)c1`, the MIC in data set [1] worked out at 12.5 µg/mL (≈ 41.9 µM). In data set [2], this molecule had a logP of 4.53. The cytotoxicity at 72 h, 50 ug/ml in data set [3] was found to be 56.8%.

In the case of `COc1ccc(-c2cc3c(ccc4oc5ccccc5c43)o2)c(C)c1`, in data set [1], the MIC turned out to be 3.12 µg/mL (≈ 9.5 µM). In data set [2], the log partition coefficient (logP) worked out at 4.4. The cytotoxicity at 72 h, 50 ug/ml in data set [3] is 32.1%. In addition, in data set [4], the selectivity ratio was over 10.

In data set [1], `Cc1ccc(-c2cc3c(ccc4oc5ccccc5c43)o2)cc1` had an MIC of 6.25 µg/mL (≈ 20.9 µM). In data set [2], this molecule showed a log partition coefficient (logP) of 4.53. Besides, the cytotoxicity at 72 h, 50 ug/ml in data set [3] worked out at 21.6%.

In data set [1], `COc1ccc(-c2cc3c(ccc4oc5ccccc5c43)o2)cc1` had an MIC of 50 µg/mL (≈ 159 µM). Besides, the log partition coefficient (logP) in data set [2] is 3.92. Moreover, the cytotoxicity at 72 h, 50 ug/ml in data set [3] is 13.8%.

Molecule `CCCCCc1ccc(-c2cc3c(ccc4oc5ccccc5c43)o2)cc1` yielded an MIC in data set [1] of 12.5 µg/mL (≈ 35.3 µM). In addition, the logP in data set [2] is 5.78. Also, in data set [3], the cytotoxicity at 72 h, 50 ug/ml was 40.2%.

For the molecule `CCCCCCc1cc2c(ccc3oc4ccccc4c32)o1`, the MIC in data set [1] worked out at 6.25 µg/mL (≈ 21.4 µM). Further, in data set [2], the log partition coefficient (logP) was 4.8. Besides, the cytotoxicity at 72 h, 50 ug/ml in data set [3] is 32.1%.

In data set [1], `FC(F)(F)Oc1ccc(-c2cc3c(ccc4oc5ccccc5c43)o2)cc1` had an MIC of 50 µg/mL (≈ 136 µM). For the same molecule, the logP in data set [2] is 5.57. The cytotoxicity at 72 h, 50 ug/ml in data set [3] was determined as 72.1%.

As to `Fc1ccc(-c2cc3c(ccc4oc5ccccc5c43)o2)c(F)c1`, the MIC in data set [1] came to 50 µg/mL (≈ 156 µM). Also, the logP in data set [2] was found to be 4.36. Also, the cytotoxicity at 72 h, 50 ug/ml in data set [3] was 34.1%.

In turn, `c1ccc2c(c1)oc1ccc3oc(-c4ccsc4)cc3c12` gave an MIC in data set [1] of 50 µg/mL (≈ 172 µM). Besides, in data set [2], the logP came to 3.97. Moreover, the cytotoxicity at 72 h, 50 ug/ml in data set [3] was found to be 23.1%.

In the case of `CC[C@@H](CO)NCCN[C@@H](CC)CO` [ETHAMBUTOL], the MIC in data set [1] was found to be 3.13 µg/mL (≈ 15.3 µM).

`NNC(=O)c1ccncc1` [ISONIAZID]: in data set [1], the MIC is 0.1 µg/mL (≈ 0.729 µM).

On to `NC(=O)c1cnccn1` [PYRAZINAMIDE], for which the MIC in data set [1] is 50 µg/mL (≈ 406 µM).

(Values after ChEMBL document CHEMBL2424559, “Design, synthesis and antitubercular evaluation of novel 2-substituted-3H-benzofuro benzofurans via palladium-copper catalysed Sonagashira coupling reaction” (Bioorg Med Chem Lett, 2013).)
